Where two headings read alike, the source gives them in different places.
How the values were obtained:
[1] = system: purified primary human T cells stimulated using immobilized anti-CD3 antibody; test: T-cell costimulation, IL-2 production; format: cell-based
Protocol: CRBN ubiquitination was measured in HEK293T cells, which were transfected with an amino-terminal His-biotin-tagged CRBN construct, then preincubated with compounds for one hour followed by treatment with the MG132 proteasome inhibitor (to arrest degradation of ubiquitinated proteins). Cells were lysed and processed to measure CRBN ubiquitination by SDS-PAGE and immunoblot analysis using an anti-ubiquitin antibody. Cell proliferation studies were conducted in lenalidomide-sensitive and refractory multiple myeloma cells. […] T-cell costimulation was measured in purified primary human T cells stimulated using immobilized anti-CD3 antibody in cell culture for 2 days, and cytokine secretion was measured by ELISA.

[2] = system: NCI-H929 cells (Control, Revlimid-sensitive, parental); test: Proliferation and viability by 7-AAD staining; format: cell-based; details: Homo sapiens, NCI-H929, 120 h, read-out: IC50, proliferation
[3] = system: Revlimid-resistant NCI-H929 R1-10; test: Proliferation and viability by 7-AAD staining; format: cell-based; details: Homo sapiens, NCI-H929, 120 h, read-out: IC50, proliferation
[4] = system: Revlimid-resistant NCI-H929 R2-10; test: Proliferation and viability by 7-AAD staining; format: cell-based; details: Homo sapiens, NCI-H929, 120 h, read-out: IC50, proliferation
[5] = system: Revlimid-resistant NCI-H929 R3-10; test: Proliferation and viability by 7-AAD staining; format: cell-based; details: Homo sapiens, NCI-H929, 120 h, read-out: IC50, proliferation
[6] = system: Revlimid-resistant NCI-H929 R4-10; test: Proliferation and viability by 7-AAD staining; format: cell-based; details: Homo sapiens, NCI-H929, 120 h, read-out: IC50, proliferation
[7] = system: megakaryocyte progenitor cells (normal human bone marrows); test: Megakaryocyte colony formation assay; format: cell-based; details: Homo sapiens, 14-16 days
Protocol: Colony formation assay was conducted with normal human bone marrows treated in semi-solid collagen matrix with compound/IL-3/IL-6/Tpo for 14-16 days, and the results are summarized in Table 7.

[8] = target: T1, endogeneous human CRBN (U266 extract) (Homo sapiens, UniProt Q96SW2); test: Thalidomide affinity bead competition assay; format: binding; details: 3 μM
T1 construct: endogenous in cells; host or cells: U266 human multiple myeloma cells (NP-40 lysate)
Protocol: Affinity beads coupled to a thalidomide acid analog were incubated with the U266 extracts and, after extensive washing of the beads, the bound proteins were eluted. CRBN binding to the thalidomide-coupled affinity beads was determined by quantitative CRBN immunoblot determination.

[9] = system: normal donor peripheral blood mononuclear cells; test: Immunoglobulin M and G production; format: cell-based; details: Homo sapiens, PBMC
Protocol: Immunoglobulin M and G (“IgG and IgM”) production was measured from normal donor peripheral blood mononuclear cells by culturing in the presence of the B cell differentiation factors recombinant human IL-2 (20U/mL), IL-10 (50 ng/mL), IL-15 (10 ng/mL), His-tagged CD40 Ligand (50 ng/mL), polyHistidine mouse IgG1 antibody (5 μg/mL), and ODN 2006-Human TLR9 ligand (10 μg/mL) for 4 days, followed by IL-2, IL-10, IL-15, and IL-6 (50 ng/mL) for an additional 3 days. IgM and IgG were measured by ELISA.

[10] = system: DoHH2 Follicular Lymphoma xenograft; test: DoHH2 Follicular Lymphoma xenograft model; format: in vivo, mouse
[11] = system: WSU-DLCL2 DLBCL xenograft; test: WSU-DLCL2 DLBCL xenograft model
[12] = Bone Marrow ID 0090128, read-out: Immature Colony IC50
[13] = Bone Marrow ID 0090128, read-out: Intermediate Colony IC50
[14] = Bone Marrow ID 0090616, read-out: Immature Colony IC50
[15] = Bone Marrow ID 0090616, read-out: Intermediate Colony IC50
[16] = Bone Marrow ID 0090714, read-out: Immature Colony IC50
[17] = Bone Marrow ID 0090714, read-out: Intermediate Colony IC50
[18] = 30 mg/kg monotherapy, Compound I-S: 84% S-enantiomer, 16% R-enantiomer
[19] = 30 mg/kg with Rituxan 1 mg/kg, Compound I-S: 84% S-enantiomer, 16% R-enantiomer
[20] = 40 mg/kg monotherapy, Compound I-S: 91% S-enantiomer, 9% R-enantiomer

Molecule: Nc1cccc2c1C(=O)N(C1CCC(=O)NC1=O)C2=O (stereo not shown) [Pomalidomide, pomalidomide, reference compound]
- EC50 [1]: 10 nM
- IC50 [2]: 90 nM
- IC50 [3]: > 30000 nM
- IC50 [4]: > 30000 nM
- IC50 [5]: 6300 nM
- IC50 [6]: 14000 nM
- IC50 [7, 12]: > 10000 nM
- IC50 [7, 13]: > 10000 nM
- IC50 [7, 14]: 350 nM
- IC50 [7, 15]: 1400 nM
- IC50 [7, 16]: 1000 nM
- IC50 [7, 17]: > 10000 nM
- less CRBN bound to the affinity beads [8]: approximately 50%
- IC50 ([9]; read-out: IgG production IC50): 63 nM
- IC50 ([9]; read-out: IgM production IC50): 17 nM

Molecule: Nc1cccc2c1CN(C1CCC(=O)NC1=O)C2=O (stereo not shown) [Revlimid, lenalidomide, reference compound]
- IC50 [7, 12]: 1300 nM
- IC50 [7, 13]: > 10000 nM
- IC50 [7, 14]: 560 nM
- IC50 [7, 15]: 1300 nM
- IC50 [7, 16]: 410 nM
- IC50 [7, 17]: > 10000 nM
- % TGD ((T − C)/C) [10, 18]: 12%
- % TGI at D12 (T/C) [10, 18]: 19%
- % TGD ((T − C)/C) [10, 19]: 52%
- % TGI at D12 (T/C) [10, 19]: 54%
- % TGD ((T − C)/C) [10, 20]: 17%
- % TGI at D12 (T/C) [10, 20]: 49%
- Tumor Free Survival on Day 44 ([11]; 30 mg/kg in combination with Rituxan 2 mg/kg iv qw): 6/9

Molecule: rituximab [Rituxan, reference compound]
- % TGD ((T − C)/C) ([10]; 1 mg/kg monotherapy): 34%
- % TGI at D12 (T/C) ([10]; 1 mg/kg monotherapy): 19%
- Tumor Free Survival on Day 44 ([11]; Rituxan 2 mg/kg iv qw alone): 2/10
